Biological target: T1, Recombinant human cathepsin A (Homo sapiens, UniProt P10619)
T1 construct: Recombinant human cathepsin A (residues 29-480, with a C-terminal 10-His tag); 10-His (C); purchased R&D Systems 1049-SE
T1 sequence (P10619 29-326 limits assumed): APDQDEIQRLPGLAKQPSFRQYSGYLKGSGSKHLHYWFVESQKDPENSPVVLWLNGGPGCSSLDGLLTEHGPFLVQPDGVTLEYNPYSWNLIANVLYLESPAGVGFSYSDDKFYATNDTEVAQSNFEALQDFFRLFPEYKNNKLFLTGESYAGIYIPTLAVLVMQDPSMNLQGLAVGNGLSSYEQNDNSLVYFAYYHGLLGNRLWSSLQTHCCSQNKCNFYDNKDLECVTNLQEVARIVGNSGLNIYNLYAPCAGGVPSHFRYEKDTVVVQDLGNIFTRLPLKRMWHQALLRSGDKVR
T1 sequence (P10619 327-480 limits assumed): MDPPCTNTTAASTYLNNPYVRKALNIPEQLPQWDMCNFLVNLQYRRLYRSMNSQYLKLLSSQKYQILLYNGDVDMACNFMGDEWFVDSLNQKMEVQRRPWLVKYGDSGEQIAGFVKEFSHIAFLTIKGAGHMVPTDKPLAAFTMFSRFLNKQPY
Assay: Cathepsin A inhibitory activity
Type: biochemical
Details: activated recombinant human cathepsin A 833 ng/ml, Bodipy FL-labeled bradykinin substrate 2 μM, pH 5.5, room temperature
Method in brief: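 Enzyme (residues 29-480, C-terminal His tag) pre-activated by cathepsin L at 37° C, then quenched with E-64. Compound preincubated 15 min at room temperature in 25 mM MES pH 5.5 with 5 mM DTT, then 2 μM Bodipy FL-bradykinin added for 15 min at 833 ng/ml enzyme. Product/substrate separated by microfluidic capillary electrophoresis; IC50 from multi-concentration inhibition.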

Structure (SMILES)	IC50 [nM]
O=C(O)CC(Cc1ccccc1)NC(=O)c1csc(-c2ccc(Cl)cc2)n1 (stereo not shown) [Example 127, 3-{[2-(4-Chloro-phenyl)-thiazole-4-carbonyl]-amino}-4-phenyl-butyric acid]	12600
Cc1ccccc1-c1nc(C(=O)NC(CC(=O)O)C2CCCCC2)cs1 (stereo not shown) [Example 128, 3-Cyclohexyl-3-[(2-o-tolyl-thiazole-4-carbonyl)-amino]-propionic acid]	810
O=C(O)CC(NC(=O)c1csc(-c2ccccc2)n1)C1CCCCC1 (stereo not shown) [Example 129, 3-Cyclohexyl-3-[(2-phenyl-thiazole-4-carbonyl)-amino]-propionic acid]	1120
O=C(O)CC(NC(=O)c1csc(-c2cccc(Cl)c2Cl)n1)C1CCCCC1 (stereo not shown) [Example 130, 3-Cyclohexyl-3-{[2-(2,3-dichloro-phenyl)-thiazole-4-carbonyl]-amino}-propionic acid]	1100
O=C(O)CC(NC(=O)c1csc(-c2ccccc2F)n1)C1CCCCC1 (stereo not shown) [Example 131, 3-Cyclohexyl-3-{[2-(2-fluoro-phenyl)-thiazole-4-carbonyl]-amino}-propionic acid]	1430
O=C(O)CC(NC(=O)c1csc(-c2ccc(C(F)(F)F)cc2)n1)C1CCCCC1 (stereo not shown) [Example 132, 3-Cyclohexyl-3-{[2-(4-trifluoromethyl-phenyl)-thiazole-4-carbonyl]-amino}-propionic acid]	11200
Cc1ccccc1-c1nc(C(=O)NC(CC(=O)O)Cc2ccccc2)cs1 (stereo not shown) [Example 133, 4-Phenyl-3-[(2-o-tolyl-thiazole-4-carbonyl)-amino]-butyric acid]	3370
O=C(O)CC(Cc1ccccc1)NC(=O)c1csc(-c2ccccc2)n1 (stereo not shown) [Example 134, 4-Phenyl-3-[(2-phenyl-thiazole-4-carbonyl)-amino]-butyric acid]	3420
O=C(O)CC(Cc1ccccc1)NC(=O)c1csc(-c2ccc(C(F)(F)F)cc2)n1 (stereo not shown) [Example 135, 4-Phenyl-3-{[2-(4-trifluoromethyl-phenyl)-thiazole-4-carbonyl]-amino}-butyric acid]	22200
Cc1ccccc1[C@H](CC(=O)O)NC(=O)c1nc(-c2ccccc2)cs1 [Example 136, (S)-3-[(4-Phenyl-thiazole-2-carbonyl)-amino]-3-o-tolyl-propionic acid]	88.9

— patent US9174952B2, “Substituted 3-thiazoloamino-propionic acid derivatives and their use as pharmaceuticals” (SANOFI, priority 2011, dated 2015)
